Reference: US11078197B2, “5-membered and bicyclic heterocyclic amides as inhibitors of rock” (BRISTOL-MYERS SQUIBB COMPANY, priority 2017, dated 2021)

biological target: ROCK2 (Homo sapiens (Human), UniProt O75116); assay: ROCK2 assay (peptide phosphorylation, LABCHIP 3000 Reader); assay type: biochemical; conditions: 5 μM ATP, 1.5 μM peptide substrate, dose-response
Description: After incubation, the reaction was terminated by the addition of EDTA and the phosphorylated and non-phosphorylated peptides separated using a LABCHIP®3000 Reader (Caliper Life Sciences). […] Compounds were tested in dose-response format, and the inhibition of kinase activity was calculated at each concentration of compound. […] Representative Examples were tested in the ROCK2 assay described above and found having ROCK2 inhibitory activity.

ROCK2, sequence (O75116 whole entry, species assumed): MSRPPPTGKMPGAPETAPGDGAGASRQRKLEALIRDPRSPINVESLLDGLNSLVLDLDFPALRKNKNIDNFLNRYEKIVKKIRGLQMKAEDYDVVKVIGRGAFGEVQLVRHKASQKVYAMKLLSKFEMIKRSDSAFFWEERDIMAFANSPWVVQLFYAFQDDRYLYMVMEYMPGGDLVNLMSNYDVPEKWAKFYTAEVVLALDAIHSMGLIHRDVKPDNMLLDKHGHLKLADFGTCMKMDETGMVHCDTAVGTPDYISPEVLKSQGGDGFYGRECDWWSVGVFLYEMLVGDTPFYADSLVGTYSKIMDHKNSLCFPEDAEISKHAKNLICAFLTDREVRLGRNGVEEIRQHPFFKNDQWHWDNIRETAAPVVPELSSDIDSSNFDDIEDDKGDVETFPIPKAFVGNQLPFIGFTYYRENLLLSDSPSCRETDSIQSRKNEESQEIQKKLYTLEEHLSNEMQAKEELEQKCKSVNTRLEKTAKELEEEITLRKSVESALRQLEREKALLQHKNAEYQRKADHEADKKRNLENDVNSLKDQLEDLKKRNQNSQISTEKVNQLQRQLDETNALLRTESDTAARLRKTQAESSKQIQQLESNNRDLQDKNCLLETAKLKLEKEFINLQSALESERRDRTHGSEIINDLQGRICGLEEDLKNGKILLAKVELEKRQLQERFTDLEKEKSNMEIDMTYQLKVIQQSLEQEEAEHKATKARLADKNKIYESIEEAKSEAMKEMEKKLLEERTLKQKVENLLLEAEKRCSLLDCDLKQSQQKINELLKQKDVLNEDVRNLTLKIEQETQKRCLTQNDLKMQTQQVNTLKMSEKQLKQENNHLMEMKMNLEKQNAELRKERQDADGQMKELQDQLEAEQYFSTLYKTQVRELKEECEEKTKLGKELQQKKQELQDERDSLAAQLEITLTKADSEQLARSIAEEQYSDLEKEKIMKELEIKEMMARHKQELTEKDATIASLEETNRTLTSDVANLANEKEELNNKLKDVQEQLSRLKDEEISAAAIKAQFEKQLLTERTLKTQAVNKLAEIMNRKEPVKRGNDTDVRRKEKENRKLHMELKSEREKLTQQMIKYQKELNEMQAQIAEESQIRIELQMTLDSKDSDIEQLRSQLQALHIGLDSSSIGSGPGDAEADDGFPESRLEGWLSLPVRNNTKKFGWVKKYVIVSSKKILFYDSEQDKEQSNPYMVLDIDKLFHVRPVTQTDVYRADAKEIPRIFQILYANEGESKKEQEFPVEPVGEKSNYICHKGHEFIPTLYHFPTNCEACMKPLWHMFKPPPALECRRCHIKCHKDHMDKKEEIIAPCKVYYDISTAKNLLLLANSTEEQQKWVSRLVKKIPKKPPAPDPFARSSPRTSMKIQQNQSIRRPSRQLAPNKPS

SMILES | IC50
Cc1sc2cc(C(N)=O)c(O[C@H]3C[C@@]4(C[C@H](NC(=O)c5cnc6ccc(F)cc6c5)C4)C3)nc2c1C (stereo partly drawn) [Example 96, 6-fluoro-N-[(aR)-6-({6-carbamoyl-2,3-dimethylthieno[3,2-b]pyridin-5-yl}oxy)spiro[3.3]heptan-2-yl]quinoline-3-carboxamide] | 126 nM
Cc1csc2cc(C(N)=O)c(O[C@H]3C[C@@]4(C[C@H](NC(=O)c5cnn6cc(OCC(C)(C)O)ccc56)C4)C3)nc12 (stereo partly drawn) [Example 97, 3-methyl-5-{[(aR)-6-[6-(2-hydroxy-2-methylpropoxy)pyrazolo[1,5-a]pyridine-3-amido]spiro[3.3]heptan-2-yl]oxy}thieno[3,2-b]pyridine-6-carboxamide] | 12 nM
Cc1csc2cc(C(N)=O)c(O[C@H]3C[C@@]4(C[C@H](NC(=O)c5cccc(C#N)c5)C4)C3)nc12 (stereo partly drawn) [Example 98, 3-methyl-5-{[(aR)-6-(3-cyanobenzamido)spiro[3.3]heptan-2-yl]oxy}thieno[3,2-b]pyridine-6-carboxamide] | 25.7 nM
Cc1csc2cc(C(N)=O)c(O[C@H]3C[C@@]4(C[C@H](NC(=O)c5cnc6ccc(F)cc6c5)C4)C3)nc12 (stereo partly drawn) [Example 99, 6-fluoro-N-[(aR)-6-({6-carbamoyl-3-methylthieno[3,2-b]pyridin-5-yl}oxy)spiro[3.3]heptan-2-yl]quinoline-3-carboxamide] | 67.1 nM
NC(=O)c1cc2c(nc1O[C@H]1C[C@@]3(C[C@H](NC(=O)c4cnc5ccc(F)cc5c4)C3)C1)CCOC2 (stereo partly drawn) [Example 100, 6-fluoro-N-[(aR)-6-({3-carbamoyl-5H,7H,8H-pyrano[4,3-b]pyridin-2-yl}oxy)spiro[3.3]heptan-2-yl]quinoline-3-carboxamide] | 36.6 nM
Cn1ncc2cc(C(N)=O)c(O[C@H]3C[C@@]4(C[C@H](NC(=O)c5cnn6cc(OCC(C)(C)O)ccc56)C4)C3)nc21 (stereo partly drawn) [Example 101, 1-methyl-6-{[(aR)-6-[6-(2-hydroxy-2-methylpropoxy)pyrazolo [1,5-a]pyridine-3-amido]spiro[3.3]heptan-2-yl]oxy}-1H-pyrazolo[3,4-b]pyridine-5-carboxamide] | 6 nM
Cn1ncc2cc(C(N)=O)c(O[C@H]3C[C@@]4(C[C@H](NC(=O)c5cccc(C#N)c5)C4)C3)nc21 (stereo partly drawn) [Example 102, 1-methyl-6-{[(aR)-6-(3-cyanobenzamido)spiro[3.3]heptan-2-yl]oxy}-1H-pyrazolo[3,4-b]pyridine-5-carboxamide] | 8 nM
Cn1ncc2cc(C(N)=O)c(O[C@H]3C[C@@]4(C[C@H](NC(=O)c5cnc6ccc(F)cc6c5)C4)C3)nc21 (stereo partly drawn) [Example 103, 6-fluoro-N-[(aR)-6-({5-carbamoyl-1-methyl-1H-pyrazolo[3,4-b]pyridin-6-yl}oxy)spiro[3.3]heptan-2-yl]quinoline-3-carboxamide] | 5 nM
NC(=O)c1cn(C2CC2)nc1O[C@H]1C[C@]2(C1)C[C@H](N1C(=O)NC(Cc3ccccc3)C1=O)C2 (stereo partly drawn) [Example 104, 1-cyclopropyl-3-{[(aR)-6-(4-benzyl-2,5-dioxoimidazolidin-1-yl)spiro[3.3]heptan-2-yl]oxy}-1H-pyrazole-4-carboxamide] | 2040 nM
CC(C)CC1NC(=O)N([C@H]2C[C@@]3(C[C@H](Oc4nn(C5CC5)cc4C(N)=O)C3)C2)C1=O (stereo partly drawn) [Example 105, 1-cyclopropyl-3-{[(aR)-6-[4-(2-methylpropyl)-2,5-dioxoimidazolidin-1-yl]spiro[3.3]heptan-2-yl]oxy}-1H-pyrazole-4-carboxamide] | 132 nM
CC(C)C1NC(=O)N([C@H]2C[C@@]3(C[C@H](Oc4nc(C5CC5)sc4C(N)=O)C3)C2)C1=O (stereo partly drawn) [Example 106, 2-cyclopropyl-4-{[(aR)-6-[2,5-dioxo-4-(propan-2-yl)imidazolidin-1-yl]spiro[3.3]heptan-2-yl]oxy}-1,3-thiazole-5-carboxamide] | 587 nM
NC(=O)c1sc(C2CC2)nc1O[C@H]1C[C@]2(C1)C[C@H](N1C(=O)NC(Cc3cccnc3)C1=O)C2 (stereo partly drawn) [Example 107, 2-cyclopropyl-4-{[(aR)-6-{2,5-dioxo-4-[(pyridin-3-yl)methyl]imidazolidin-1-yl}spiro[3.3]heptan-2-yl]oxy}-1,3-thiazole-5-carboxamide] | 1830 nM
CCC1NC(=O)N([C@H]2C[C@@]3(C[C@H](Oc4nc(C5CC5)sc4C(N)=O)C3)C2)C1=O (stereo partly drawn) [Example 108, 2-cyclopropyl-4-{[(aR)-6-(4-ethyl-2,5-dioxoimidazolidin-1-yl)spiro[3.3]heptan-2-yl]oxy}-1,3-thiazole-5-carboxamide] | 1870 nM
COc1nc(O[C@H]2CC3(C[C@H](NC(=O)c4cnn(-c5ccc(C#N)cc5)c4C)C3)C2)c(C(N)=O)s1 (stereo partly drawn) [Example 112, 4-(((2S,4s,6)-6-(1-(4-cyanophenyl)-5-methyl-1H-pyrazole-4-carboxamido)spiro[3.3]heptan-2-yl)oxy)-2-methoxythiazole-5-carboxamide] | 205 nM
COc1nc(O[C@H]2C[C@@]3(C[C@H](NC(=O)c4cnn(-c5ccc(Cl)cc5)c4C)C3)C2)c(C(N)=O)s1 (stereo partly drawn) [Example 113, 2-methoxy-4-{[(4s)-6-[1-(4-chlorophenyl)-5-methyl-1H-pyrazole-4-amido]spiro[3.3]heptan-2-yl]oxy}-1,3-thiazole-5-carboxamide] | 53.1 nM
COc1nc(O[C@H]2C[C@@]3(C[C@H](NC(=O)c4cnn(-c5ccc(C(F)(F)F)cn5)c4C)C3)C2)c(C(N)=O)s1 (stereo partly drawn) [Example 114, 2-methoxy-4-{[(4s)-6-{5-methyl-1-[5-(trifluoromethyl)pyridin-2-yl]-1H-pyrazole-4-amido}spiro[3.3]heptan-2-yl]oxy}-1,3-thiazole-5-carboxamide] | 115 nM
COc1nc(O[C@H]2C[C@@]3(C[C@H](NC(=O)c4cnn5cc(OCC(F)F)ccc45)C3)C2)c(C(N)=O)s1 (stereo partly drawn) [Example 115, 2-methoxy-4-{[(4s)-6-[6-(2,2-difluoroethoxy)pyrazolo[1,5-a]pyridine-3-amido]spiro[3.3]heptan-2-yl]oxy}-1,3-thiazole-5-carboxamide] | 31.2 nM
COc1nc(O[C@H]2C[C@@]3(C[C@H](NC(=O)c4cnn5cc(OCC(O)(C(F)(F)F)C(F)(F)F)ccc45)C3)C2)c(C(N)=O)s1 (stereo partly drawn) [Example 116, 2-methoxy-4-{[(4s)-6-{6-[3,3,3-trifluoro-2-hydroxy-2-(trifluoromethyl)propoxy]pyrazolo[1,5-a]pyridine-3-amido}spiro[3.3]heptan-2-yl]oxy}-1,3-thiazole-5-carboxamide] | 71.6 nM
COc1nc(O[C@H]2C[C@@]3(C[C@H](NC(=O)c4cnn5cc(OCC(F)(F)F)ccc45)C3)C2)c(C(N)=O)s1 (stereo partly drawn) [Example 117, 2-methoxy-4-{[(4s)-6-[6-(2,2,2-trifluoroethoxy)pyrazolo[1,5-a]pyridine-3-amido]spiro[3.3]heptan-2-yl]oxy}-1,3-thiazole-5-carboxamide] | 58.7 nM
Cc1c(C(=O)N[C@H]2C[C@]3(C2)C[C@H](Oc2nn4ccccc4c2C(N)=O)C3)cnn1-c1ccc(C#N)cc1 (stereo partly drawn) [Example 118, 1-(4-cyanophenyl)-5-methyl-N-[(4s)-6-({3-carbamoylpyrazolo[1,5-a]pyridin-2-yl}oxy)spiro[3.3]heptan-2-yl]-1H-pyrazole-4-carboxamide] | 639 nM
Cc1c(C(=O)N[C@H]2C[C@]3(C2)C[C@H](Oc2nn4ccccc4c2C(N)=O)C3)cnn1-c1ccc(Cl)cc1 (stereo partly drawn) [Example 119, 1-(4-chlorophenyl)-5-methyl-N-[(4s)-6-({3-carbamoylpyrazolo[1,5-a]pyridin-2-yl}oxy)spiro[3.3]heptan-2-yl]-1H-pyrazole-4-carboxamide] | 351 nM
Cc1c(C(=O)N[C@H]2C[C@]3(C2)C[C@H](Oc2nn4ccccc4c2C(N)=O)C3)cnn1-c1ccc(C(F)(F)F)cn1 (stereo partly drawn) [Example 120, 5-methyl-N-[(4s)-6-({3-carbamoylpyrazolo[1,5-a]pyridin-2-yl}oxy)spiro[3.3]heptan-2-yl]-1-[5-(trifluoromethyl)pyridin-2-yl]-1H-pyrazole-4-carboxamide] | 805 nM
CC(C)(O)COc1ccc2c(C(=O)N[C@H]3C[C@]4(C3)C[C@H](Oc3nn5ccccc5c3C(N)=O)C4)nn(C(F)F)c2c1 (stereo partly drawn) [Example 121, 1-(difluoromethyl)-6-(2-hydroxy-2-methylpropoxy)-N-[(4s)-6-({3-carbamoylpyrazolo[1,5-a]pyridin-2-yl}oxy)spiro[3.3]heptan-2-yl]-1H-indazole-3-carboxamide] | 18.3 nM
NC(=O)c1c(O[C@H]2C[C@@]3(C[C@H](NC(=O)c4cnn5cc(OCC(F)F)ccc45)C3)C2)nn2ccccc12 (stereo partly drawn) [Example 122, 2-{[(4s)-6-[6-(2,2-difluoroethoxy)pyrazolo[1,5-a]pyridine-3-amido]spiro[3.3]heptan-2-yl]oxy}pyrazolo[1,5-a]pyridine-3-carboxamide] | 117 nM
NC(=O)c1c(O[C@H]2C[C@@]3(C[C@H](NC(=O)c4cnn5cc(OCC(O)(C(F)(F)F)C(F)(F)F)ccc45)C3)C2)nn2ccccc12 (stereo partly drawn) [Example 123, 2-{[(4s)-6-{6-[3,3,3-trifluoro-2-hydroxy-2-(trifluoromethyl)propoxy]pyrazolo[1,5-a]pyridine-3-amido}spiro[3.3]heptan-2-yl]oxy}pyrazolo[1,5-a]pyridine-3-carboxamide] | 241 nM
COc1ccc2c(C(N)=O)c(O[C@H]3C[C@@]4(C[C@H](NC(=O)c5nn(C(F)F)c6cc(OCC(C)(C)O)ccc56)C4)C3)nn2c1 (stereo partly drawn) [Example 124, 1-(difluoromethyl)-6-(2-hydroxy-2-methylpropoxy)-N-[(4s)-6-({3-carbamoyl-6-methoxypyrazolo[1,5-a]pyridin-2-yl}oxy)spiro[3.3]heptan-2-yl]-1H-indazole-3-carboxamide] | 90.4 nM
COc1ccc2c(C(N)=O)c(O[C@H]3C[C@@]4(C[C@H](NC(=O)c5cnn6cc(OCC(F)F)ccc56)C4)C3)nn2c1 (stereo partly drawn) [Example 125, 6-methoxy-2-{[(4s)-6-[6-(2,2-difluoroethoxy)pyrazolo[1,5-a]pyridine-3-amido]spiro[3.3]heptan-2-yl]oxy}pyrazolo[1,5-a]pyridine-3-carboxamide] | 316 nM
